Laboratory results from ChEMBL document CHEMBL6096648, “Discovery of phenazine derivatives as a new class of non-classical ferroptosis inhibitors and efficacy evaluation on a mouse model of liver injury” (Eur J Med Chem, 2025).
Activity calls are given as the source filed them. No cut-off for these calls is given here.

Legend:
ES-2 [1] = experiment: Inhibition of erastin-induced ferroptosis in human ES2 cells assessed as increase in cell viability incubated for 48 hrs in presence of erastin by MTT assay; type: functional, cell-based; settings: ES-2, 48 h
LX-2 = experiment: Inhibition of erastin-induced ferroptosis in human LX2 cells assessed as increase in cell viability incubated for 48 hrs in presence of erastin by MTT assay; type: functional, cell-based; settings: LX-2, 48 h
ES-2 [2] = experiment: Inhibition of staurosporine-induced apoptosis in human ES2 cells assessed as cell viability at 10 uM incubated for 24 hrs in presence of staurosporine by MTT assay; type: functional, cell-based
ES-2 [3] = experiment: Inhibition of erastin-induced ferroptosis in human ES2 cells assessed as increase in intracellular GSH content at 1 uM measured after 8 to 10 hrs; type: functional, cell-based; settings: time 8-10 hrs
THP-1 = experiment: Inhibition of LPS/nigericin-stimulated pyroptosis in PMA-differentiated human THP-1 cells assessed as cell viability at 10 uM treated with LPS for 4 hrs followed by incubation with compound and nigericin for 30 mins by MTT assay; type: functional, cell-based
HT-29 = experiment: Inhibition of TNF-alpha/Smac-mimetic/Z-VAD-FMK-induced necrosis in human HT-29 cells assessed as cell viability at 10 uM incubated for 24 hrs in presence of TNF-alpha/Smac-mimetic/Z-VAD-FMK by MTT assay; type: functional, cell-based
[4] = Potency index, ratio of ferrostatin-1 EC50 to test compound EC50 for inhibition of erastin-induced ferroptosis in human ES2 cells; type: functional, ES-2
ES-2 [5] = experiment: Inhibition of erastin-induced ferroptosis in human ES2 cells assessed as reduction in cytosolic ROS accumulation at 0.01 to 1 uM measured after 8 to 10 hrs by DCFH-DA staining based fluorescence analysis; type: functional, cell-based; settings: dose 0.01-1 µM, time 8-10 hrs
ES-2 [6] = experiment: Inhibition of ferritinophagy in erastin-stimulated human ES2 cells assessed as increase in FTH1 gene expression at 0.01 to 1 uM by qRT-PCR analysis; type: functional, cell-based; settings: dose 0.01-1 µM
Mus musculus [7] = experiment: Protection against APAP-induced acute liver injury C57BL/6 mouse model assessed as decrease in liver tissue damage at 3 mg/kg, ip administered 2 hrs prior to APAP injection and measured after 6 hrs by Hematoxylin-Eosin staining based analysis; type: functional, organism-based; settings: time 8.0 hrs
ES2 = experiment: Effect on ERK1/2 phoshorylation in erastin-stimulated human ES2 cells at 0.01 to 1 uM incubated for 8 to 10 hrs by western blot analysis; type: cell-based; settings: dose 0.01-1 µM, time 8-10 hrs
Mus musculus [8] = experiment: Protection against APAP-induced acute liver injury C57BL/6 mouse model assessed as decrease in liver MDA content at 3 mg/kg, ip administered 2 hrs prior to APAP injection and measured after 6 hrs; type: functional, organism-based; settings: time 8.0 hrs
ES-2 [9] = experiment: Inhibition of erastin-induced ferroptosis in human ES2 cells assessed as TFR1 protein expression at 0.01 to 1 uM incubated for 8 to 10 hrs by western blot analysis; type: functional, cell-based; settings: dose 0.01-1 µM, time 8-10 hrs
ES-2 [10] = experiment: Inhibition of erastin-induced ferroptosis in human ES2 cells assessed as FPN protein expression at 0.01 to 1 uM incubated for 8 to 10 hrs by western blot analysis; type: functional, cell-based; settings: dose 0.01-1 µM, time 8-10 hrs
[11] = Metal chelating activity assessed as compound-Fe2+ complex formation at 10 uM incubated for 5 mins by ferrozine-based colorimetric assay
ES-2 [12] = experiment: Inhibition of ferritinophagy in erastin-stimulated human ES2 cells assessed as increase in NCOA4 gene expression at 0.01 to 1 uM by qRT-PCR analysis; type: functional, cell-based; settings: dose 0.01-1 µM
ES-2 [13] = experiment: Inhibition of ferritinophagy in erastin-stimulated human ES2 cells assessed as increase in NCOA4 protein expression incubated for 8 to 10 hrs by western blot analysis; type: functional, cell-based; settings: dose 0.01-1 µM, time 8-10 hrs
ES-2 [14] = experiment: Inhibition of ferritinophagy in erastin-stimulated human ES2 cells assessed as increase in FTL gene expression at 0.01 to 1 uM by qRT-PCR analysis; type: functional, cell-based; settings: dose 0.01-1 µM
Mus musculus [15] = experiment: Protection against APAP-induced acute liver injury C57BL/6 mouse model assessed as decrease in serum AST content at 3 mg/kg, ip administered 2 hrs prior to APAP injection and measured after 6 hrs; type: functional, organism-based; settings: time 8.0 hrs
ES-2 [16] = experiment: Inhibition of erastin-induced ferroptosis in human ES2 cells assessed as DMT1 protein expression at 0.01 to 1 uM incubated for 8 to 10 hrs by western blot analysis; type: functional, cell-based; settings: dose 0.01-1 µM, time 8-10 hrs
ES-2 [17] = experiment: Inhibition of erastin-induced ferroptosis in human ES2 cells assessed as NRF2 protein expression at 0.01 to 1 uM incubated for 8 to 10 hrs by western blot analysis; type: functional, cell-based; settings: dose 0.01-1 µM, time 8-10 hrs
ES-2 [18] = experiment: Inhibition of erastin-induced ferroptosis in human ES2 cells assessed as inhibition of lipid peroxidation by measuring decrease in MDA content at 0.01 uM measured after 8 to 10 hrs; type: functional, cell-based; settings: time 8-10 hrs
ES-2 [19] = experiment: Inhibition of erastin-induced ferroptosis in human ES2 cells assessed as ERK protein expression at 0.01 to 1 uM incubated for 8 to 10 hrs by western blot analysis; type: functional, cell-based; settings: dose 0.01-1 µM, time 8-10 hrs
[20] = Antioxidant activity assessed as DPPH radical scavenging activity at 1 to 50 uM incubated for 10 mins by DPPH assay; type: functional; settings: dose 1-50 µM
ES-2 [21] = experiment: Inhibition of erastin-induced ferroptosis in human ES2 cells assessed as increase in intracellular GSH content at 0.01 to 1 uM measured after 8 to 10 hrs; type: functional, cell-based; settings: dose 0.01-1 µM, time 8-10 hrs
ES-2 [22] = experiment: Inhibition of erastin-induced ferroptosis in human ES2 cells assessed as FACL4 protein expression at 0.01 to 1 uM incubated for 8 to 10 hrs by western blot analysis; type: functional, cell-based; settings: dose 0.01-1 µM, time 8-10 hrs
Mus musculus [23] = experiment: Protection against APAP-induced acute liver injury C57BL/6 mouse model assessed as decrease in serum ALT content at 3 mg/kg, ip administered 2 hrs prior to APAP injection and measured after 6 hrs; type: functional, organism-based; settings: time 8.0 hrs
ES-2 [24] = experiment: Inhibition of ferritinophagy in erastin-stimulated human ES2 cells assessed as increase in ferritin protein expression incubated for 8 to 10 hrs by western blot analysis; type: functional, cell-based; settings: dose 0.01-1 µM, time 8-10 hrs
ES-2 [25] = experiment: Inhibition of erastin-induced ferroptosis in human ES2 cells assessed as xCT protein expression at 0.01 to 1 uM incubated for 8 to 10 hrs by western blot analysis; type: functional, cell-based; settings: dose 0.01-1 µM, time 8-10 hrs
ES-2 [26] = experiment: Inhibition of erastin-induced ferroptosis in human ES2 cells assessed as GPX4 protein expression at 0.01 to 1 uM incubated for 8 to 10 hrs by western blot analysis; type: functional, cell-based; settings: dose 0.01-1 µM, time 8-10 hrs

c1ccc(-c2noc(-c3cccc4nc5ccccc5nc34)n2)nc1
EC50 (ES-2 [1]): 131 nM

c1ccc2nc3c(-c4nc(-n5cccn5)no4)cccc3nc2c1
EC50 (ES-2 [1]): 143 nM

c1cncc(-c2noc(-c3cccc4nc5ccccc5nc34)n2)c1
EC50 (ES-2 [1]): 240 nM

c1ccc2nc3ccccc3nc2c1 [PHENAZINE]
EC50 (ES-2 [1]): 2820 nM

c1ccc2nc3c(-c4nc(C5CC5)no4)cccc3nc2c1
EC50 (ES-2 [1]): 214 nM

Fc1ccccc1-c1noc(-c2cccc3nc4ccccc4nc23)n1
EC50 (LX-2): 1 nM | EC50 (ES-2 [1]): 5 nM

CCOc1ccccc1-c1noc(-c2cccc3nc4ccccc4nc23)n1
EC50 (LX-2): 10 nM | EC50 (ES-2 [1]): 23 nM

Cc1cccc(-c2noc(-c3cccc4nc5ccccc5nc34)n2)c1
EC50 (LX-2): 4 nM | EC50 (ES-2 [1]): 7 nM

Fc1ccc(-c2noc(-c3cccc4nc5ccccc5nc34)n2)cc1F
EC50 (LX-2): 11 nM | EC50 (ES-2 [1]): 9 nM

c1ccc2nc3c(-c4nc(-c5ccc(N6CCOCC6)cc5)no4)cccc3nc2c1
EC50 (LX-2): 1 nM | EC50 (ES-2 [1]): 1 nM

Cc1ccccc1-c1noc(-c2cccc3nc4ccccc4nc23)n1
EC50 (LX-2): 10 nM | EC50 (ES-2 [1]): 13 nM

CCOC(=O)c1ccc(NC2CCCCC2)c(N)c1
inhibition (ES-2 [2]): inactive | inhibition (ES-2 [3]): inactive | inhibition (THP-1): inactive | EC50 (LX-2): 67 nM | EC50 (ES-2 [1]): 70.1 nM | inhibition (HT-29): inactive

Fc1ccc(-c2noc(-c3cccc4nc5ccccc5nc34)n2)cc1
EC50 (LX-2): 2 nM | EC50 (ES-2 [1]): 2 nM

FC(F)(F)c1ccccc1-c1noc(-c2cccc3nc4ccccc4nc23)n1
EC50 (LX-2): 15 nM | EC50 (ES-2 [1]): 39 nM

Fc1cccc(-c2noc(-c3cccc4nc5ccccc5nc34)n2)c1
EC50 (LX-2): 2 nM | EC50 (ES-2 [1]): 2 nM

CC(C)c1noc(-c2cccc3nc4ccccc4nc23)n1
EC50 (ES-2 [1]): 136 nM

CC(C)(C)c1noc(-c2cccc3nc4ccccc4nc23)n1
EC50 (ES-2 [1]): 604 nM

FC(F)(F)c1cccc(-c2noc(-c3cccc4nc5ccccc5nc34)n2)c1
EC50 (LX-2): 13 nM | EC50 (ES-2 [1]): 2 nM

Cc1ccc(-c2noc(-c3cccc4nc5ccccc5nc34)n2)cc1
EC50 (LX-2): 2 nM | EC50 (ES-2 [1]): 130 nM

c1cc(CN2CCCCC2)cc(-c2noc(-c3cccc4nc5ccccc5nc34)n2)c1
Ratio EC50 [4]: 1000 | inhibition (ES-2 [5]): Active | inhibition (ES-2 [6]): Active | Activity (Mus musculus [7]): Active | Activity (ES2): inactive | Activity (Mus musculus [8]): Active | inhibition (ES-2 [9]): inactive | inhibition (ES-2 [10]): inactive | Activity [11]: inactive | inhibition (ES-2 [2]): inactive | inhibition (ES-2 [12]): Active | inhibition (THP-1): inactive | inhibition (ES-2 [13]): Dose-dependent-effect | inhibition (ES-2 [14]): Active | Activity (Mus musculus [15]): Active | inhibition (ES-2 [16]): inactive | inhibition (ES-2 [17]): inactive | inhibition (ES-2 [18]): Active | inhibition (ES-2 [19]): inactive | EC50 (LX-2): 0.925 nM | Activity [20]: inactive | inhibition (ES-2 [21]): inactive | inhibition (ES-2 [22]): inactive | Activity (Mus musculus [23]): Active | inhibition (ES-2 [24]): Dose-dependent-effect | EC50 (ES-2 [1]): 0.712 nM | inhibition (ES-2 [25]): inactive | inhibition (HT-29): inactive | inhibition (ES-2 [26]): inactive

COc1ccccc1-c1noc(-c2cccc3nc4ccccc4nc23)n1
EC50 (LX-2): 5 nM | EC50 (ES-2 [1]): 13 nM

c1ccc2nc3c(-c4nc(-c5ccncc5)no4)cccc3nc2c1
EC50 (ES-2 [1]): 7 nM

FC(F)(F)Oc1cccc(-c2noc(-c3cccc4nc5ccccc5nc34)n2)c1
EC50 (LX-2): 14 nM | EC50 (ES-2 [1]): 6 nM

c1ccc2nc3c(-c4nc(-c5nccs5)no4)cccc3nc2c1
EC50 (ES-2 [1]): 6 nM

CC(C)(C)c1ccc(-c2noc(-c3cccc4nc5ccccc5nc34)n2)cc1
EC50 (LX-2): 13 nM | EC50 (ES-2 [1]): 11 nM

c1ccc(-c2noc(-c3cccc4nc5ccccc5nc34)n2)cc1
EC50 (ES-2 [1]): 4 nM

CN(C)c1cccc(-c2noc(-c3cccc4nc5ccccc5nc34)n2)c1
EC50 (LX-2): 2 nM | EC50 (ES-2 [1]): 1 nM

Brc1cccc(-c2noc(-c3cccc4nc5ccccc5nc34)n2)c1
EC50 (LX-2): 6 nM | EC50 (ES-2 [1]): 2 nM

Cc1noc(-c2cccc3nc4ccccc4nc23)n1
EC50 (ES-2 [1]): 268 nM

FC(F)(F)c1ccc(-c2noc(-c3cccc4nc5ccccc5nc34)n2)cc1
EC50 (LX-2): 32 nM | EC50 (ES-2 [1]): 3 nM

CC(C)(C)c1cccc(-c2noc(-c3cccc4nc5ccccc5nc34)n2)c1
EC50 (LX-2): 7 nM | EC50 (ES-2 [1]): 3 nM
